Experimental data from patent US20070265289A1, “2-Aminopyrimidine Derivative” (priority 2004, published 2007).
Counter-ions that a name gives are not always drawn.

How the values were obtained:
TNF-α production = experiment: Mouse LPS-induced TNF-α production model; assay type: in vivo, Balb/c female mice; details: oral administration of 30 mg/kg, 60 minutes before LPS, blood 90 minutes after LPS; for inhibition in vivo at 30 mg/kg: Mus musculus, po, 1.5 h, read-out: inhibition of plasma TNF-α
Experimental: (2) Mouse LPS-Induced TNF-α Production Model:
6 weeks old Balb/c female mice were placed into two groups, a control group and a test compound administration group. A solution containing 10 μg/mouse of LPS in 0.9% physiological salt was administered by intraperitoneal injection into the control mice. 60 minutes before the LPS administration, a compound of the invention was orally administered to the mice of the test compound administration group. Under anesthesia with diethyl ether, blood was collected from the posterior venous cavity of the mice of both the test compound administration group and the control group at 90 minutes after the LPS administration, and treated with heparin, and the plasma was separated from it through centrifugation at 10000 rpm at 4° C. for 10 minutes, and then diluted two-fold with PBS (pH 7.4).
The TNF-α concentration in the sample was determined with an ELISA kit (by Pharmingen, San Diego, Calif.). The inhibition by the mice of the test compound administration group relative to the mean inhibition by those of the control group was calculated as a mean value thereof.
The inhibition in oral administration of 30 mg/kg of compound (I) is shown below.

rat IKK2 = target: T1, rat IKK2 (Rattus norvegicus, UniProt Q9QY78); experiment: Evaluation of rat IKK2 enzyme inhibition; assay type: biochemical; details: 0.5 μM ATP, probit analysis; read-out: IC50, rat IKK2 enzyme activity-inhibitory effect
T1 construct: ORF of rat IKK2 (GenBank AF115282) was cloned from a rat pancreas cDNA library; FLAG; made in house; host or cells: Sf9 insect cells
T1 sequence (Q9QY78 1-757): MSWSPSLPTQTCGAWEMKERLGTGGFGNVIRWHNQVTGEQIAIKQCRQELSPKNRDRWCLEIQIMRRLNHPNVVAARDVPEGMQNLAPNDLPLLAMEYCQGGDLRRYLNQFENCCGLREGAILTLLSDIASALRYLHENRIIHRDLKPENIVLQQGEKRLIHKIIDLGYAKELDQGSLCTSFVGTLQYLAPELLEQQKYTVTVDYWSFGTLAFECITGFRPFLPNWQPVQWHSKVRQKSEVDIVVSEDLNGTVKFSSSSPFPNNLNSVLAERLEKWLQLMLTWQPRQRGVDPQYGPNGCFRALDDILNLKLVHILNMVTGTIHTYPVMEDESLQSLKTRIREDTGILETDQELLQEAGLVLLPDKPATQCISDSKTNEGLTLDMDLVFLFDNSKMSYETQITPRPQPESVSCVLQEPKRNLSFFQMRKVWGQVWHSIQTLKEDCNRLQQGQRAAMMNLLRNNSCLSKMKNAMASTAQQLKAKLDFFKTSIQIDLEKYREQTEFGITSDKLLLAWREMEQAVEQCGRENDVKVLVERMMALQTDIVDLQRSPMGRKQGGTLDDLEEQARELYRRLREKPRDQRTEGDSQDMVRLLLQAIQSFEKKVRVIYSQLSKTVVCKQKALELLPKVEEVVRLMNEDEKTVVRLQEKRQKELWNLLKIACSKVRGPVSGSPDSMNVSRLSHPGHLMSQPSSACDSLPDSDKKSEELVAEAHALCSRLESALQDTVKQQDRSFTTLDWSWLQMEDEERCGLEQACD
Experimental: (1) Evaluation of Rat IKK2 Enzyme Inhibition:
ORF of rat IKK2 (GenBank AF115282) was cloned from a rat pancreas cDNA library, and with a FLAG-tag attached thereto, it was expressed in an Sf9 cell line. The cells were dissolved in a cytolytic solution (50 mM Tris-HCl pH 7.5, 0.15M NaCl, 1% NP-40, 10% glycerol, 1 mM EDTA, 1 mM EGTA pH 7.5, 1 mM Na3VO4, 5 mM p-nitrophenylphosphate, 10 mM O-glycerophosphate, 1 mM DTT, 1 mM PMSF, 10 μg/ml leupeptin, 10 μg/ml aprotinin (by Sigma)) to prepare a large amount of an cell extract, which was then purified on an anti-FLAG M2 antibody (by Sigma). This experimental operation was carried out in accordance with gene manipulation experiment manuals such as known methods (Sambrook, J. et al, Molecular Cloning-A Laboratory Manual, Cold Spring Harbor laboratory, NY, 1989) or the instructions attached to the reagents. The purified rat IKK2 was stored in an enzyme preservative (20 mM Tris-HCl pH 7.5, 10% glycerol, 12.5 mM β-glycerophosphate, 0.5 mM EDTA, 0.5 mM EGTA, 0.05% Brij35, 1 mM DTT, 1 mM PMSF (by Sigma)) at −80° C.
The purified rat IKK2, 1× enzymatic reaction buffer (20 mM Tris-HCl pH 7.5, 12.5 mM O-glycerophosphate, 20 mM MgCl2, 0.1 mM DTT), 0.01% BSA (by Sigma), 0.5 μM ATP, 0.2 μM biotinated substrate peptide (18th to 49th amino acid residues of rat I-kappa B alpha (GenBank Q63746)) and a test compound dissolved in DMSO were added to a 384-well plate (catalogue No. 3677, by Corning) to be 10 μl in total therein, and left at room temperature for 90 minutes. Next, […] of a reaction stopper (100 mM Hepse pH 8, 0.01% BSA, 0.8 M KF, 50 mM EDTA pH 8, 1% Triton X-100, europium cryptate-labeled anti-phosphorylation I-kappa B alpha-antibody (by Santa Cru), streptoavidin-labeled XL665 (by Nihon Schering)) was added thereto, kept warmed for 30 minutes, and then assayed with DISCOVERY (by Perkin-Elmer). The rat IKK2 enzyme activity-inhibitory effect of the tested compound was obtained according to the following formula. Every dose was tested independently three times. Inhibition (%) by Test Compound=((mean value with rat IKK2 but not with test compound)−(mean value with both test compound and rat IKK2))/((mean value with rat IKK2 but not with test compound)−(mean value not with rat IKK2))×100.

carrageenan paw edema = experiment: Rat carrageenan paw edema model; assay type: in vivo, Sprague-Dawley male rats; details: for edema inhibitory activity: 30 mg/kg oral administration, 3 hours after carrageenan
Experimental: (3) Rat Carrageenan Paw Edema Model:
After their body weight was measured, Sprague-Dawley male rats (6-10 weeks age, male, by Nippon SLC) were divided into groups of 5 rats each in such a manner that the mean body weight of each group could be on the same level. Next, a test compound was orally administered to the rats (but 10 mL/kg of solvent alone was administered to those of the control group). 30 minutes after the test compound administration thereto, 100 μL of a 1% carrageenan (by Sigma Aldrich Japan) solution was subcutaneously injected to the sub-plantar of the right foot of each rat to induce inflammation. 3 hours after the inflammation induction, the rats were killed by deep anesthetization with ether, and their tissue below the right and left ankles was cut and collected and its weight was measured.
The test result was obtained as follows: In every rat, the weight of the left foot with no carrageenan injection thereto was subtracted from the weight of the right foot with carrageenan injection thereto, 3 hours after the carrageenan injection, thereby calculating the weight difference (g) therebetween. The edema inhibition in the test compound-administered rats was calculated relative to the mean value of the rats of the control group. For multi-group comparison between the control group and the test compound administration group, employed was a Dunnett multiple comparison test, in which the P value less than 0.05 was considered as statistical significance. All the above statistical analyses were carried out, using SAS.

| Structure (SMILES) | IC50 (rat IKK2) | other results |
| --- | --- | --- |
| CCc1ccc(O)c(-c2cc(C3CCCNC3)nc(N)n2)c1 (single isomer, unassigned; (+)) [Example 79, (+)-2-(2-amino-6-piperidin-3-ylpyrimidin-4-yl)-4-ethylphenol dihydrochloride] | – | inhibition in vivo at 30 mg/kg (TNF-α production): 64% |
| Nc1nc(-c2c(O)cccc2OCc2ccccc2)cc(C2CCCNC2)n1 (centres unmarked) [Example 47] | ≤ 0.5 µM | – |
| Nc1nc(-c2c(O)cccc2OCCC2CCNCC2)cc(C2CCCNC2)n1 (centres unmarked) [Example 48] | ≤ 0.5 µM | – |
| CC1CC1COc1cccc(O)c1-c1cc(C2CCCNC2)nc(N)n1 (centres unmarked) [Example 65, 2-(2-amino-6-piperidin-3-ylpyrimidin-4-yl)-3-[(2-methylcyclopropyl)methoxy]phenol dihydrochloride] | ≤ 0.5 µM | inhibition in vivo at 30 mg/kg (TNF-α production): 75% |
| Nc1nc(-c2c(O)cccc2OCC(F)(F)C(F)F)cc(C2CCCNC2)n1 (centres unmarked) [Example 89] | ≤ 0.5 µM | inhibition in vivo at 30 mg/kg (TNF-α production): 87% |
| CC1(COc2cccc(O)c2-c2cc(C3CCCNC3)nc(N)n2)CC1 (centres unmarked) [Example 99] | ≤ 0.5 µM | – |
| CC(C)OCCOc1cccc(O)c1-c1cc(C2CCCNC2)nc(N)n1 (centres unmarked) [Example 100] | ≤ 0.5 µM | – |
| CC(C)COCCOc1cccc(O)c1-c1cc(C2CCCNC2)nc(N)n1 (centres unmarked) [Example 101] | ≤ 0.5 µM | – |
| CC(COc1cccc(O)c1-c1cc(C2CCCNC2)nc(N)n1)Oc1ccccc1 (centres unmarked) [Example 103] | ≤ 0.5 µM | inhibition in vivo at 30 mg/kg (TNF-α production): 70% |
| Nc1nc(-c2c(O)cccc2OCCC2CC2)cc(C2CCCNC2)n1 (centres unmarked) [Example 104] | ≤ 0.5 µM | inhibition in vivo at 30 mg/kg (TNF-α production): 86% |
| Nc1nc(-c2c(O)cccc2OCCCC(F)(F)F)cc(C2CCCNC2)n1 (centres unmarked) [Example 106] | ≤ 0.5 µM | inhibition in vivo at 30 mg/kg (TNF-α production): 82% |
| Nc1nc(-c2c(O)cccc2OCc2ccc(Br)cc2)cc(C2CCCNC2)n1 (centres unmarked) [Example 108] | ≤ 0.5 µM | – |
| CC1CCC(Oc2cccc(O)c2-c2cc(C3CCCNC3)nc(N)n2)C1 (centres unmarked) [Example 126] | ≤ 0.5 µM | – |
| Cc1ccc(O)c(-c2cc(C3CNCC(C)C3)nc(N)n2)c1 (centres unmarked) [Example 136] | ≤ 0.5 µM | – |
| Cc1ccc(O)c(-c2cc(C3CCC(C)NC3)nc(N)n2)c1 (centres unmarked) [Example 137] | ≤ 0.5 µM | – |
| Nc1nc(-c2c(O)cccc2OCC2CC2)cc(C2CCCNC2)n1 (centres unmarked) [Example 141] | – | inhibition in vivo at 30 mg/kg (TNF-α production): 86% |
| Nc1nc(-c2c(O)cccc2OCC2CC2)cc(C2CCCNC2)n1 (centres unmarked) [Example 142] | – | inhibition of plasma TNF-α (TNF-α production; 30 mg/kg): 90% |
| Nc1nc(-c2c(O)cccc2OCC2CC2)cc(C2CCNCC2)n1 [Example 145] | ≤ 0.5 µM | – |
| CC(C)COc1cccc(O)c1-c1cc(C2CCNCC2)nc(N)n1 [Example 146] | ≤ 0.5 µM | – |
| Nc1nc(-c2c(O)cccc2OCC(=O)c2ccccc2)cc(C2CCNCC2)n1 [Example 147] | ≤ 0.5 µM | – |
| CN(Cc1cnc2nc(N)nc(N)c2n1)c1ccc(C(=O)N[C@@H](CCC(=O)O)C(=O)O)cc1 [Methotrexate, reference compound] | – | effect on carrageenan paw edema (carrageenan paw edema; dose not given): did not exhibit an effect |

Further lines, with some results ahead:

| IC50 (rat IKK2) | Structure (SMILES) | other results |
| --- | --- | --- |
| ≤ 0.5 µM | CCc1ccc(O)c(-c2cc(C3CCCNC3)nc(N)n2)c1 (single isomer, unassigned; (-)) [Example 78, (−)-2-(2-amino-6-piperidin-3-ylpyrimidin-4-yl)-4-ethylphenol dihydrochloride] | – |
| ≤ 0.5 µM | Nc1nc(-c2ccccc2O)cc(C2CCCNC2)n1 (centres unmarked) [Example 1, 2-(2-amino-6-piperidin-3-ylpyrimidin-4-yl)phenol dihydrochloride] | – |
| ≤ 0.5 µM | CCOc1cccc(O)c1-c1cc(C2CCCNC2)nc(N)n1 (centres unmarked) [Example 5, 2-(2-amino-6-piperidin-3-ylpyrimidin-4-yl)-3-ethoxyphenol dihydrochloride] | – |
| ≤ 0.5 µM | Nc1nc(-c2c(O)cccc2O)cc(C2CCCNC2)n1 (centres unmarked) [Example 10, 2-(2-amino-6-piperidin-3-ylpyrimidin-4-yl)benzene-1,3-diol dihydrochloride] | – |
| ≤ 0.5 µM | Nc1nc(-c2cc(F)ccc2O)cc(C2CCCNC2)n1 (centres unmarked) [Example 12] | – |
| ≤ 0.5 µM | Nc1nc(-c2ccc(F)cc2O)cc(C2CCCNC2)n1 (centres unmarked) [Example 13] | – |
| ≤ 0.5 µM | Nc1nc(-c2cc(Cl)ccc2O)cc(C2CCCNC2)n1 (centres unmarked) [Example 14] | – |
| ≤ 0.5 µM | Cc1cc(O)c(-c2cc(C3CCCNC3)nc(N)n2)cc1Cl (centres unmarked) [Example 19] | – |
| ≤ 0.5 µM | Cc1ccc(-c2cc(C3CCCNC3)nc(N)n2)c(O)c1 (centres unmarked) [Example 21] | edema inhibitory activity (carrageenan paw edema): 30% |
| ≤ 0.5 µM | Cc1ccc(O)c(-c2cc(C3CCCNC3)nc(N)n2)c1 (centres unmarked) [Example 22] | inhibition in vivo at 30 mg/kg (TNF-α production): 73% |
| ≤ 0.5 µM | CCc1ccc(O)c(-c2cc(C3CCCNC3)nc(N)n2)c1 (centres unmarked) [Example 23] | edema inhibitory activity (carrageenan paw edema): 50% |
| ≤ 0.5 µM | COc1ccc(O)c(-c2cc(C3CCCNC3)nc(N)n2)c1 (centres unmarked) [Example 26] | – |
| ≤ 0.5 µM | CSc1ccc(O)c(-c2cc(C3CCCNC3)nc(N)n2)c1 (centres unmarked) [Example 28] | – |
| ≤ 0.5 µM | Cc1cc(O)c(-c2cc(C3CCCNC3)nc(N)n2)c(OCC2CC2)c1 (centres unmarked) [Example 40] | – |
| ≤ 0.5 µM | COc1cccc(O)c1-c1cc(C2CCCNC2)nc(N)n1 (centres unmarked) [Example 44] | – |
| ≤ 0.5 µM | COCCOc1cccc(O)c1-c1cc(C2CCCNC2)nc(N)n1 (centres unmarked) [Example 46] | – |
| 0.0029 µM | CC1CCC(c2cc(-c3c(O)cccc3OCC3CC3)nc(N)n2)CN1 (centres unmarked) [Example 140] | inhibition in vivo at 30 mg/kg (TNF-α production): 86% |
